Measurements taken from paper PMC11641657, “Innovative Approaches to Fucoxanthin Delivery: Characterization and Bioavailability of Solid Lipid Nanoparticles with Eco-Friendly Ingredients and Enteric Coating” (International Journal of Molecular Sciences, 2024).

Key:
[1] = Morphology by TEM and SEM; type: physicochemical; settings: in aqueous medium
Procedure: The samples were analyzed by means of a transmission electron microscopy (TEM) (Thermo Scientific Talos F200C) operating at 80 KV. For TEM analysis, the samples were placed on copper grids XP-UC300 (Shanghai X-Pivot Optoelectronic Technology Co., Ltd., Shanghai, China). Scanning Electron Microscopy (SEM) was used to determine the structure of the lyophilized FN–SLN. FN–SLN was dispersed in water and spread on a double-sided conducting adhesive tape, then was pasted on a metallic stub. After drying, it was coated ([…]) with gold in a sputter coating unit for […] using an accelerated voltage of 15 KeV.

[2] = In vivo pharmacokinetics test, oral dosing, FNOH in plasma by LC-MS/MS; settings: after oral 10 mg/kg, parent FN
Procedure: The qualification and quantification of FN and FNOH in plasma samples was conducted using Nexera LC-40 (Shimadzu UPLC, Kyoto, Japan) coupled with AB 6500+ Q-trap mass spectrometry (ABSCIEX, Framinham, MA, USA), which was equipped with electrospray ionization (ESI). The mobile phase was composed of H2O (A: 0.1% formic acid and acetonitrile (B, 0.1% formic acid; A:B = 10:90, v/v) at a flow rate of 0.35 mL/min, and the injection volume was 5 µL. The analysis utilized a Kinetex EVO C18 column (2.1 mm × 100 mm, 2.6 μm) Phenomenex, Torrance, CA, USA), which was maintained at a temperature of 25 °C. The detection of the compounds (Table 6) was performed in positive ion mode under the following conditions: curtain gas at 35.0 L/h, collision gas medium, ion spray voltage at 5000 V, temperature at 400 °C, and ion source gases 1 and 2 both at 55 L/h. […] The data was acquired using AB Analyst 1.6.1 software (ABSCIEX, USA).
They were provided with standard rat chow and water and libitum throughout the study. The rats were acclimatized to the laboratory environment for 7 days prior to the start of the experiment to minimize stress-induced effects. […]
The plasma drug concentration data were fitted using a non-compartmental model, and pharmacokinetic parameters were calculated via Phoenix WinNonlin 8.1 (Certara Corporation, Princeton, NJ, USA).

[3] = Dispersion in ultra-pure water; type: physicochemical; settings: visual
[4] = In vitro release study (dialysis cassette, SGF then SIF); type: physicochemical; settings: 2 h SGF then SIF, 37 °C
Procedure: A 3 mL dispersion of solid lipid nanoparticles (SLNs) and fucoxanthin (FN) crystal at a concentration of 1 mg/mL/FN was placed in separate dialysis cassettes (Slide-A-Lyzer, Thermo Fisher Scientific, USA) with a molecular weight cutoff (MWCO) of 20 KDa. Each cassette was then immersed in 120 mL of release medium, consisting of 60% ethanol and 40% SGF, and maintained at 37 °C with a stirring speed of 120 rpm for the first 2 h. An appropriate amount of ethanol is necessary to be added to improve the release of FN in a water-based environment. Two hours later, SGF was replaced with SIF. Samples of 10 µL were periodically withdrawn from the internal compartment of the dialysis cassette, using methanol for extraction and dilution to determine the concentration of fucoxanthin. The remaining FN% was calculated with the following equation:(3) Releasing FX%=(1−Mt/M0)×100% where: M0 is the initial amount of FN, and Mt is the amount of FN calculated at a given incubation time.

[5] = In vitro dissolution test with enteric-coated capsule (SGF then SIF); type: physicochemical
Procedure: In this study, 7.8 mg of FN–SLNs and FN crystals were encapsulated in separate enteric-coated capsules. The capsules were placed in a glass bottle containing 2 mL of SGF and maintained at 37 °C, stirring at 120 rpm for the first 2 h. During this period, 100 µL samples were collected at predetermined intervals to assess the dissolution profiles of both formulations. Each time a sample was taken, 100 µL of the corresponding fluid was added to maintain the total volume. […] Following this, the SGF was replaced with 2 mL of SIF, and sampling continued at specified intervals. After each sampling, the collected solutions were centrifuged for 2 min (5000 rpm, 4 °C) to separate any undissolved particles. The supernatants were then extracted using methanol, allowing for the quantification of FN using high-performance liquid chromatography (HPLC).

[6] = parameters: method as in PMID 11694619; settings: one of the lowest among studied carotenoids; cited from earlier work

With CC(=O)O[C@H]1CC(C)(C)C(=C=C/C(C)=C/C=C/C(C)=C/C=C/C=C(C)/C=C/C=C(\C)C(=O)C[C@@]23O[C@]2(C)C[C@@H](O)CC3(C)C)[C@](C)(O)C1 [FN, Fucoxanthin] as the compound, how does the “Overall average length of crystals” value [1] read?
The value was “exceeding 5 µm”.

And the “Concentration of FN in rat plasma” value [2]?
The value was “below the lowest limit of quantitation”.

What about the Dispersion in water [3] of the same compound?
Its Dispersion in water is “inadequate”.

What about the “Highest release rate in SGF and SIF” value [4] of the same compound?
Its value is 2.88%.

And the “Release rate throughout the 8-h observation period” value [5]?
The value was “consistently low release rate”.

And the Bioavailability [6]?
The Bioavailability was ~ 50 pmol/mg protein.
